From patent US20240300910A1, “NITROTHIAZOLE DERIVATIVE AND APPLICATION THEREOF” (CHENGDU BIOBEL BIOTECHNOLOGY CO., LTD., priority 2021, published 2024)
Values after ≈ are worked out from the molar mass of the structure shown. Where two headings read alike, the source gives them in different places.

Tests used:
[1] = tested on: Clostridium difficile ATCC BBA1870; assay: In vitro MIC, agar dilution, Clostridium difficile ATCC BBA1870; format: cell-based; details: Clostridioides difficile, ATCCBBA1870, 48 h, read-out: MIC values, Clostridium difficile ATCC BBA1870
[2] = tested on: Clostridium difficile ATCC 700057; assay: In vitro MIC, agar dilution, Clostridium difficile ATCC 700057; format: cell-based; details: Clostridioides difficile, read-out: MIC values, Clostridium difficile ATCC 700057
[3] = tested on: Clostridium difficile ATCC 630; assay: In vitro MIC, agar dilution, Clostridium difficile ATCC 630; format: cell-based; details: Clostridioides difficile, read-out: MIC values, Clostridium difficile ATCC 630
[4] = tested on: ATCC BAA-835; assay: Selectivity on intestinal probiotics, MIC, agar dilution; format: cell-based; details: read-out: MIC value, ATCC BAA-835
Protocol: (§1) ATCC19435, Lactobacillus rhamnosus ATCC7469, Lactobacillus bulgaricus ATCC11842, and the test was performed using Brucella agar medium. The strains frozen at −80° C. were seeded in solid agar medium. The medium was placed in a 37° C. incubator and anaerobically cultivated for 24-48 h. […] For compound I-3 of the present invention, a high concentration (100× test concentration) of working solution was prepared and used on the same day, and 100% DMSO was used as the solvent. As for the preparation of each agar plate for each diluted concentration, 20 μl of high concentration working solution was mixed with 2 ml of melted Brucella agar with supplements (45-55° C.), and then added to a 6-well plate for solidification. 1% DMSO was used as growth control. On the day of the experiment, an appropriate amount of single bacterial colony was selected and suspended in physiological saline. A turbidity meter was used to adjust the turbidity of the bacterial solution to OD600=0.2, and thus the density was about 1×10^8 CFU/ml. 2 μl of such bacterial solution was directly seeded on a solid dilution agar plate of each compound. […] Then, all of the test plates were subjected to anaerobic cultivation at 35±2° C. for 48 h.

[5] = tested on: Bifidobacterium bifidum CGMCC NO.1.5091; assay: as above; format: cell-based; details: read-out: MIC value, Bifidobacterium bifidum CGMCC NO.1.5091
Protocol: as §1

[6] = tested on: Enterococcus faecalis ATCC19433; assay: as above; format: cell-based; details: read-out: MIC value, Enterococcus faecalis ATCC19433
Protocol: as §1

[7] = tested on: Lactobacillus acidophilus ATCC4356; assay: as above; format: cell-based; details: read-out: MIC value, Lactobacillus acidophilus ATCC4356
Protocol: as §1

[8] = tested on: Lactobacillus bulgaricus ATCC11842; assay: as above; format: cell-based; details: read-out: MIC value, Lactobacillus bulgaricus ATCC11842
Protocol: as §1

[9] = tested on: Lactobacillus rhamnosus ATCC7469; assay: as above; format: cell-based; details: Lacticaseibacillus rhamnosus, read-out: MIC value, Lactobacillus rhamnosus ATCC7469
Protocol: as §1

[10] = tested on: Lactococcus lactis subsp. ATCC19435; assay: as above; format: cell-based; details: read-out: MIC value, Lactococcus lactis subsp. ATCC19435
Protocol: as §1

[11] = tested on: Clostridium difficile spores (ATCC 630 strain); assay: Treatment of Clostridium difficile infection in golden hamsters; format: in vivo; details: golden hamsters challenged with C. difficile spores; for survival / mortality after drug withdrawal, observed until the 45th day: twice a day for 20 days (I-3 100 mg/kg, vancomycin 10 mg/kg, fidaxomicin 10 mg/kg, nitazoxanide 100 mg/kg); for time after drug withdrawal at which deaths occurred / began: drugs removed from the 21st day
Protocol: 60 of 5-week-old male golden hamsters, weighing 70-90 g, were purchased from Beijing Vital River Laboratory Animal Technology Co., Ltd. After one week of adaptive feeding, golden hamsters were randomly divided into six groups. The model group and four test groups were orally administrated 10 mg/kg clindamycin, while the blank group was given the same volume of normal saline, and this day was recorded as day −1. On day 0, the model group and the test groups were challenged with Clostridium difficile spores (ATCC 630 strain), and each hamster received 5E4 spores. The blank group was not treated. Starting from the first day, four test groups were administered 100 mg/kg of compound I-3 according to the present invention, 10 mg/kg of vancomycin, 10 mg/kg of fidaxomicin, and 100 mg/kg of nitazoxanide twice a day, respectively; the blank group and the model group were given equal amounts of normal saline for a total of 20 days. During this period, the changes in weight, the diarrhea, and the mortality of animals were observed. Starting from the 21st day, the drugs were removed, but the observation was continued until the 45th day.

[12] = ATCC700057, Brucella agar with supplements, anaerobic cultivation 48 h
[13] = ATCC630, Brucella agar with supplements, anaerobic cultivation 48 h
[14] = probiotic strain, Brucella agar, anaerobic cultivation 48 h
[15] = CGMCC1, probiotic strain, Brucella agar, anaerobic cultivation 48 h
[16] = ATCC19433, probiotic strain, Brucella agar, anaerobic cultivation 48 h
[17] = ATCC4356, probiotic strain, Brucella agar, anaerobic cultivation 48 h
[18] = ATCC11842, probiotic strain, Brucella agar, anaerobic cultivation 48 h
[19] = ATCC7469, probiotic strain, Brucella agar, anaerobic cultivation 48 h
[20] = ATCC19435, probiotic strain, Brucella agar, anaerobic cultivation 48 h

SMILES | MIC [1] [µg/mL] | MIC [2, 12] [µg/mL] | MIC [3, 13] [µg/mL] | MIC [4, 14] [µg/mL] | MIC [5, 15] [µg/mL] | MIC [6, 16] [µg/mL] | MIC [7, 17] [µg/mL] | MIC [8, 18] [µg/mL] | MIC [9, 19] [µg/mL] | MIC [10, 20] [µg/mL] | survival / mortality after drug withdrawal, observed until the 45th day [11] | other results
CCCCCCCC(=O)Oc1ccccc1C(=O)Nc1ncc([N+](=O)[O-])s1 [Compound I-2] | 0.25 (≈ 0.639 µM) | 0.25 (≈ 0.639 µM) | 0.0625 (≈ 0.16 µM) |  |  |  |  |  |  |  |  | 
CC(=O)Oc1ccccc1C(=O)Nc1ncc([N+](=O)[O-])s1 [nitazoxanide, Nitazoxanide] | 0.5 (≈ 1.63 µM) | 0.125 (≈ 0.407 µM) | 0.125 (≈ 0.407 µM) | 1 (≈ 3.25 µM) | 32 (≈ 104 µM) | 64 (≈ 208 µM) | 64 (≈ 208 µM) | 64 (≈ 208 µM) | 256 (≈ 833 µM) | 8 (≈ 26 µM) | four hamsters in the nitroxide group survived | 
CCCCCCCCCCCC(=O)Oc1ccccc1C(=O)Nc1ncc([N+](=O)[O-])s1 [Compound I-3] | 0.125 (≈ 0.279 µM) | 0.0625 (≈ 0.14 µM) | 0.0625 (≈ 0.14 µM) | 128 (≈ 286 µM) | 128 (≈ 286 µM) | 256 (≈ 572 µM) | > 256 | > 256 | > 256 | 256 (≈ 572 µM) | only one animal died | time after drug withdrawal at which deaths occurred / began [11]: 7 days
CCc1c(Cl)c(O)c(Cl)c(O)c1C(=O)O[C@H]1[C@H](O)[C@H](OC)[C@H](OC/C2=C\C=C\C[C@H](O)/C(C)=C/[C@H](CC)[C@@H](O[C@@H]3OC(C)(C)[C@@H](OC(=O)C(C)C)[C@H](O)[C@@H]3O)/C(C)=C/C(C)=C/C[C@@H]([C@@H](C)O)OC2=O)O[C@@H]1C [fidaxomicin] |  |  |  | 1 (≈ 0.945 µM) | 4 (≈ 3.78 µM) | 1 (≈ 0.945 µM) | 128 (≈ 121 µM) | 128 (≈ 121 µM) | 16 (≈ 15.1 µM) | 64 (≈ 60.5 µM) | all of them died | time after drug withdrawal at which deaths occurred / began [11]: 15 days
CN[C@H](CC(C)C)C(=O)N[C@H]1C(=O)N[C@@H](CC(N)=O)C(=O)N[C@H]2C(=O)N[C@H]3C(=O)N[C@H](C(=O)N[C@H](C(=O)O)c4cc(O)cc(O)c4-c4cc3ccc4O)[C@H](O)c3ccc(c(Cl)c3)Oc3cc2cc(c3O[C@@H]2O[C@H](CO)[C@@H](O)[C@H](O)[C@H]2O[C@H]2C[C@](C)(N)[C@H](O)[C@H](C)O2)Oc2ccc(cc2Cl)[C@H]1O [vancomycin] | 1 (≈ 0.69 µM) |  |  |  |  |  |  |  |  |  | all hamsters in the vancomycin group died | MIC ([2]; ATCC700057, 48 h): 1 µg/mL (≈ 0.69 µM); MIC ([3]; ATCC630, 48 h): 2 µg/mL (≈ 1.38 µM); MIC ([4]; 48 h): 8 µg/mL (≈ 5.52 µM); MIC ([5]; CGMCC1, 48 h): 4 µg/mL (≈ 2.76 µM); MIC ([6]; ATCC19433, 48 h): 4 µg/mL (≈ 2.76 µM); MIC ([7]; ATCC4356, 48 h): 4 µg/mL (≈ 2.76 µM); MIC ([8]; ATCC11842, 48 h): > 256 µg/mL; MIC ([9]; ATCC7469, 48 h): 256 µg/mL (≈ 177 µM); MIC ([10]; ATCC19435, 48 h): 4 µg/mL (≈ 2.76 µM)
CCCCCCCCCCCCCC(=O)Oc1ccccc1C(=O)Nc1ncc([N+](=O)[O-])s1 [Compound I-4] | 0.25 (≈ 0.526 µM) | 0.125 (≈ 0.263 µM) | 0.0625 (≈ 0.131 µM) |  |  |  |  |  |  |  |  | 
CCCC(=O)Oc1ccccc1C(=O)Nc1ncc([N+](=O)[O-])s1 [Compound I-1] | 0.25 (≈ 0.746 µM) | 0.25 (≈ 0.746 µM) | 0.0625 (≈ 0.186 µM) |  |  |  |  |  |  |  |  | 
